What was measured:
[1] = target: T1, 5-hydroxytryptamine receptor 1A (Homo sapiens) (UniProt P08908); test: Displacement of [3H]WAY100635 from human 5-HT1AR expressed in CHO cell membranes at 10 uM incubated for 90 mins under dark condition by microbeta scintillation counting method relative to control
T1 sequence (whole entry): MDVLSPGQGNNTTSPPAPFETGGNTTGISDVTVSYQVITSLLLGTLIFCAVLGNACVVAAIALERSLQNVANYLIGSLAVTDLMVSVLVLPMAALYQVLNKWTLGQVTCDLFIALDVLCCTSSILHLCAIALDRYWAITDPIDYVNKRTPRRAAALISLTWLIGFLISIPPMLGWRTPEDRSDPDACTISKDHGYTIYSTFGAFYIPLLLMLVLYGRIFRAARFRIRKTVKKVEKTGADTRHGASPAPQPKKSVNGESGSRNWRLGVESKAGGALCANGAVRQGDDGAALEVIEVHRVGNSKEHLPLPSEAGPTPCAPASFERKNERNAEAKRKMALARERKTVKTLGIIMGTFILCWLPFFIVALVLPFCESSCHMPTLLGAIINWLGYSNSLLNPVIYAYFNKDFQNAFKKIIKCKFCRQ

[2] = target: 5-hydroxytryptamine receptor 1B (Homo sapiens) (UniProt P28222); test: Displacement of [3H]5-CT from human 5-HT1BR expressed in HEK cell membranes at 10 uM incubated for 90 mins under dark condition by microbeta scintillation counting method relative to control; conditions: HEK293
[3] = target: 5-hydroxytryptamine receptor 1D (Homo sapiens) (UniProt P28221); test: Displacement of [3H]5-CT from human 5-HT1D receptor expressed in HEK-T cell membranes at 10 uM incubated for 90 mins under dark condition by microbeta scintillation counting method relative to control
[4] = target: 5-hydroxytryptamine receptor 1E (Homo sapiens) (UniProt P28566); test: Displacement of [3H]5-HT from human 5-HT1E receptor expressed in HEK cell membranes at 10 uM incubated for 90 mins under dark condition by microbeta scintillation counting method relative to control; conditions: HEK293
[5] = target: 5-hydroxytryptamine receptor 4 (Homo sapiens) (UniProt Q13639); test: Displacement of [3H]GR113808 from human 5-HT4 receptor at 10 uM incubated for 90 mins under dark condition by microbeta scintillation counting method relative to control
[6] = target: 5-hydroxytryptamine receptor 6 (Homo sapiens) (UniProt P50406); test: Displacement of [3H]LSD from human 5-HT6 receptor expressed in HEK cell membranes at 10 uM incubated for 90 mins under dark condition by microbeta scintillation counting method relative to control; conditions: HEK293
[7] = target: 5-hydroxytryptamine receptor 7 (Homo sapiens) (UniProt P34969); test: Displacement of [3H]LSD from human 5-HT7A receptor expressed in HEK cell membranes at 10 uM incubated for 90 mins under dark condition by microbeta scintillation counting method relative to control; conditions: HEK293
[8] = target: T2, 5-hydroxytryptamine receptor 3A (Homo sapiens) (UniProt P46098); test: Displacement of [3H]GR65630 from human 5-HT3 receptor expressed in HEK-T cell membranes at 10 uM incubated for 90 mins under dark condition by microbeta scintillation counting method relative to control
T2 sequence (whole entry): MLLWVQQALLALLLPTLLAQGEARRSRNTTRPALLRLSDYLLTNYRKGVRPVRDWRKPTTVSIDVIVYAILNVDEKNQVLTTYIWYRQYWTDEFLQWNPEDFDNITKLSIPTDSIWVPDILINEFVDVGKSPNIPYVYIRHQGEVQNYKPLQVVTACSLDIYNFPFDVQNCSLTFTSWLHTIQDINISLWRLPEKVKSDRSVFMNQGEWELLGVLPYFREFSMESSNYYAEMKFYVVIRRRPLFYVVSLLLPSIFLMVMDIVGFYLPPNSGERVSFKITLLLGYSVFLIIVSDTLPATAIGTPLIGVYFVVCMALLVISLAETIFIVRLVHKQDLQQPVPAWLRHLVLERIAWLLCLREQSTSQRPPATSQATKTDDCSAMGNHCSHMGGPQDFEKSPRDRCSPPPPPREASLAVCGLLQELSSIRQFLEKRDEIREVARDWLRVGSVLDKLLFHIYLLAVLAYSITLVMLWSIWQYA

[9] = target: 5-hydroxytryptamine receptor 5A (Homo sapiens) (UniProt P47898); test: Displacement of [3H]LSD from human 5-HT5A receptor expressed in Flp-In-CHO cell membranes incubated for 90 mins under dark condition by microbeta scintillation counting method relative to control; parameters: concentration or dose not given beside the values
[10] = target: T3, 5-hydroxytryptamine receptor 2A (Homo sapiens, UniProt P28223); test: Displacement of [3H]ketanserin from human 5-HT2A receptor expressed in HEK-T cell membranes at 10 uM incubated for 90 mins under dark condition by microbeta scintillation counting method relative to control
[11] = target: T4, 5-hydroxytryptamine receptor 2B (Homo sapiens, UniProt P41595); test: biochemical; type: cell-based, HEK293
[12] = target: T5, 5-hydroxytryptamine receptor 2C (Homo sapiens, UniProt P28335); test: Displacement of [3H]mesulergine from human 5-HT2CR expressed in Flp-In HEK cell membranes incubated for 90 mins under dark condition by microbeta scintillation counting method; parameters: species or system HEK293
T5 sequence (P28335 whole entry): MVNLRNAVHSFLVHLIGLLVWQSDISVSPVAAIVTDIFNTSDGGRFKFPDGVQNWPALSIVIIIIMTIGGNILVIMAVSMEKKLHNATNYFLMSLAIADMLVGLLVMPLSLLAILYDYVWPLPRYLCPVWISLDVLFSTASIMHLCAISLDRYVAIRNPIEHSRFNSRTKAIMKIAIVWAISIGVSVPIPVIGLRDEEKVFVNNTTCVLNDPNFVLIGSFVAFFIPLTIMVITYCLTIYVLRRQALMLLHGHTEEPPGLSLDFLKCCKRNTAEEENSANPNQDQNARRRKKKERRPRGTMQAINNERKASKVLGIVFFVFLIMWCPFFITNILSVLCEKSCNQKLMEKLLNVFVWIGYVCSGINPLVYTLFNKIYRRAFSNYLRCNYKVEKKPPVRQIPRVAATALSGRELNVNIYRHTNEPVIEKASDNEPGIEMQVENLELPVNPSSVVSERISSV

[13] = target: T6, 5-hydroxytryptamine receptor 2C (Homo sapiens) (UniProt P28335); test: Displacement of [3H]mesulergine from human 5-HT2CR expressed in Flp-In HEK cell membranes at 10 uM incubated for 90 mins under dark condition by microbeta scintillation counting method relative to control; conditions: HEK293
T6 sequence (whole entry): T5 sequence (P28335 whole entry)

Adenosine receptor A1 = target: T7, Adenosine receptor A1 (Homo sapiens, UniProt P30542); test: Displacement of [3H]N6-phenylisopropyladenosine from recombinant human A1AR expressed in CHO cell membranes after 60 mins by liquid scintillation counting method
T7 sequence (P30542 whole entry): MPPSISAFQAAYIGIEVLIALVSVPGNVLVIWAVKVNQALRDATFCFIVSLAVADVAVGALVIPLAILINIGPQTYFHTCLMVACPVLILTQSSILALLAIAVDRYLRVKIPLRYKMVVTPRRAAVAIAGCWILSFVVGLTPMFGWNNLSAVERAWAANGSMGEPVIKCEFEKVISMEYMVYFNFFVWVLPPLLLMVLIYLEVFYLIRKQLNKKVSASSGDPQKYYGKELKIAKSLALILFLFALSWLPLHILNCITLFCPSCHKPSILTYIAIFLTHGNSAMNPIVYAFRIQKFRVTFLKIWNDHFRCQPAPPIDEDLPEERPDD

Adenosine receptor A2a = Adenosine receptor A2a (Homo sapiens, UniProt P29274); test: Displacement of [3 H]2-[p-(2-carboxyethyl)phenyl-ethylamino]-5'-N-ethylcarboxamidoadenosine from recombinant human adenosine receptor A2A expressed in HEK293 cell membranes at 10 uM after 60 mins by liquid scintillation counting method relative to control
Adenosine receptor A3 = target: T8, Adenosine receptor A3 (Homo sapiens, UniProt P0DMS8); test: Displacement of [125l]N 6-(4-amino-3-iodobenzyl)adenosine-5'-N-methyluronamide from recombinant human A3AR expressed in CHO cell membranes after 60 mins by gamma counting method
T8 sequence (P0DMS8 whole entry): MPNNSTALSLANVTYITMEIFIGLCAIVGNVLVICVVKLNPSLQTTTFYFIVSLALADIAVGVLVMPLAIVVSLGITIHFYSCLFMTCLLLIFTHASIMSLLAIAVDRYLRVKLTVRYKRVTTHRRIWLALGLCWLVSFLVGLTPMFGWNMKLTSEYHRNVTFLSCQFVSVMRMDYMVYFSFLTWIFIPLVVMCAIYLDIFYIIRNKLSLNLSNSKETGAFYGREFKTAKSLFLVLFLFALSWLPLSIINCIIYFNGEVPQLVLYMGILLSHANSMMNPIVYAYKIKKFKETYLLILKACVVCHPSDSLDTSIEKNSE

Translocator protein = Translocator protein (Homo sapiens, UniProt P30536); test: Inhibition of TSPO (unknown origin)
[14] = target: T3, 5-hydroxytryptamine receptor 2A; test: Displacement of [3H]ketanserin from human 5-HT2A receptor expressed in HEK-T cell membranes incubated for 90 mins under dark condition by microbeta scintillation counting method
[15] = target: T4, 5-hydroxytryptamine receptor 2B; conditions: HEK293, at 10 µM
[16] = target: 5-hydroxytryptamine receptor 3A (Homo sapiens, UniProt P46098); test: Displacement of [3H]GR65630 from human 5-HT3 receptor expressed in HEK-T cell membranes incubated for 90 mins under dark condition by microbeta scintillation counting method
[17] = target: T9, Adenosine receptor A1 (Homo sapiens) (UniProt P30542); test: Displacement of [3H]N6-phenylisopropyladenosine from recombinant human A1AR expressed in CHO cell membranes at 10 uM after 60 mins by liquid scintillation counting method relative to control
T9 sequence (whole entry): T7 sequence (P30542 whole entry)

[18] = target: Adenosine receptor A3 (Homo sapiens) (UniProt P0DMS8); test: Displacement of [125l]N 6-(4-amino-3-iodobenzyl)adenosine-5'-N-methyluronamide from recombinant human A3AR expressed in CHO cell membranes at 10 uM after 60 mins by gamma counting method relative to control
[19] = Displacement of [3H]DTG from sigma2 receptor in rat PC12 cells after 90 mins by microbeta scintillation counting method; type: cell-based; conditions: pc-12

T4 sequence (P41595 whole entry): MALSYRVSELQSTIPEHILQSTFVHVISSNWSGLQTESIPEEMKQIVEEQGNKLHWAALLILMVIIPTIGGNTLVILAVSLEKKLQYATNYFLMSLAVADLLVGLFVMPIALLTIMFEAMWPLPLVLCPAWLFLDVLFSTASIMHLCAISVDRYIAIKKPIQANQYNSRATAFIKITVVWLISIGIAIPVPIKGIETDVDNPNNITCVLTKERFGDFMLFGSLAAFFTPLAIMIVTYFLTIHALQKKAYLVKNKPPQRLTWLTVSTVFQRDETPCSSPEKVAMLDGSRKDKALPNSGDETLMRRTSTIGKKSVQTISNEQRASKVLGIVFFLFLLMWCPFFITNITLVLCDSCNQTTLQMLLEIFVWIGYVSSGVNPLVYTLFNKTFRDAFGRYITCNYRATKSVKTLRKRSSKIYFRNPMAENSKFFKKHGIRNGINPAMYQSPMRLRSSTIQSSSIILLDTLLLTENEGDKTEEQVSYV
Sequence of 5-hydroxytryptamine receptor 4 (Homo sapiens) (Q13639 whole entry): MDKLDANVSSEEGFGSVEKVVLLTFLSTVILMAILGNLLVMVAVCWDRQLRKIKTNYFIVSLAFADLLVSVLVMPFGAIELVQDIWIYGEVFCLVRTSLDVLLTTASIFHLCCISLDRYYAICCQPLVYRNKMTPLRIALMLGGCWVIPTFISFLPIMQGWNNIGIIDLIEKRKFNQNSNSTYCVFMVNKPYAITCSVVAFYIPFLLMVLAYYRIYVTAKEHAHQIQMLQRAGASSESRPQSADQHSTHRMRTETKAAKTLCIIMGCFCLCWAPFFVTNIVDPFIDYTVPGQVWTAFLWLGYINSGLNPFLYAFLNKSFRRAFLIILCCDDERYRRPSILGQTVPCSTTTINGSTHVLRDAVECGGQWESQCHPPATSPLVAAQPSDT
Sequence of 5-hydroxytryptamine receptor 5A (Homo sapiens) (P47898 whole entry): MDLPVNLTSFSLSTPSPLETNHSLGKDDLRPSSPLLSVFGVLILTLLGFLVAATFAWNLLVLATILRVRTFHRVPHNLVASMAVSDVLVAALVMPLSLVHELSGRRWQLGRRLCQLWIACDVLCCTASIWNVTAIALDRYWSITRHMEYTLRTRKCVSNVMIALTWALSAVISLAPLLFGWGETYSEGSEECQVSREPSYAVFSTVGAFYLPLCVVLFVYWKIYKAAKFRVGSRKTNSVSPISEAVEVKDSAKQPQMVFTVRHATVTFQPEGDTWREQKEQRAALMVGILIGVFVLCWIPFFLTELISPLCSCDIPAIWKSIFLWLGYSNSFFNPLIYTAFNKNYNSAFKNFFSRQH
Sequence of 5-hydroxytryptamine receptor 6 (Homo sapiens) (P50406 whole entry): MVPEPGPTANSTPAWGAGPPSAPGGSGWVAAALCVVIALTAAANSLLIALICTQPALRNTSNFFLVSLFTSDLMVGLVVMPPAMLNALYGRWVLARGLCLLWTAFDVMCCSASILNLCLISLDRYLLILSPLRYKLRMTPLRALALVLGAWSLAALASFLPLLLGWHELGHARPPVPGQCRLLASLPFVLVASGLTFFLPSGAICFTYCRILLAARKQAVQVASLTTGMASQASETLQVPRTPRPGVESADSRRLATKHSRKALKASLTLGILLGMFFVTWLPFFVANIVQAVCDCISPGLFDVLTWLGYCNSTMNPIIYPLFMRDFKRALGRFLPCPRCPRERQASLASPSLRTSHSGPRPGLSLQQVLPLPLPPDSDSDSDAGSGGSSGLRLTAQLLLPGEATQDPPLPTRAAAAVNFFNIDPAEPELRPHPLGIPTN
T3 sequence (P28223 whole entry): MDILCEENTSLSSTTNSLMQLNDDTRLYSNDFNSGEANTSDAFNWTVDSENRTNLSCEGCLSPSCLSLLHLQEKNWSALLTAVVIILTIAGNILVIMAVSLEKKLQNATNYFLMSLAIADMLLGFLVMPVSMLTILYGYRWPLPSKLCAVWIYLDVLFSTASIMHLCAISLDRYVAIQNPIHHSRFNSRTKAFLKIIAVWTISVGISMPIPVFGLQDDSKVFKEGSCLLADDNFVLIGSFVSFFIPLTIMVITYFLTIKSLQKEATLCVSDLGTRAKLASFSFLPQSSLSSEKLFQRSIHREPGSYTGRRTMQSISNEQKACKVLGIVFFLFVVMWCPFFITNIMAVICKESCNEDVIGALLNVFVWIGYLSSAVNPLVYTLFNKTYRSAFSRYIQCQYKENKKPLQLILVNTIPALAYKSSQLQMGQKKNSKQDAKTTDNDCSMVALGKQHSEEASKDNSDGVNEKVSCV
Sequence of 5-hydroxytryptamine receptor 1B (Homo sapiens) (P28222 whole entry): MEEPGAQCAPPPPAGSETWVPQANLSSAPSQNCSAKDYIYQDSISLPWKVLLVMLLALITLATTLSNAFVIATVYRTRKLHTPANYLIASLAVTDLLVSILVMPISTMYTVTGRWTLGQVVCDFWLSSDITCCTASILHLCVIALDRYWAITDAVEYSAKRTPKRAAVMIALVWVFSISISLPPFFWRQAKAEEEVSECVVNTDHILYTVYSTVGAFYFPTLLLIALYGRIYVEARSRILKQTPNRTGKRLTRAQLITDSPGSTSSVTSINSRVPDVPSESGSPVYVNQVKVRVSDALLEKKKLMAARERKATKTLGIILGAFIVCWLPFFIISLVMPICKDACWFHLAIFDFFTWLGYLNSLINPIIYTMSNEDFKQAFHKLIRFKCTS
Sequence of 5-hydroxytryptamine receptor 1D (Homo sapiens) (P28221 whole entry): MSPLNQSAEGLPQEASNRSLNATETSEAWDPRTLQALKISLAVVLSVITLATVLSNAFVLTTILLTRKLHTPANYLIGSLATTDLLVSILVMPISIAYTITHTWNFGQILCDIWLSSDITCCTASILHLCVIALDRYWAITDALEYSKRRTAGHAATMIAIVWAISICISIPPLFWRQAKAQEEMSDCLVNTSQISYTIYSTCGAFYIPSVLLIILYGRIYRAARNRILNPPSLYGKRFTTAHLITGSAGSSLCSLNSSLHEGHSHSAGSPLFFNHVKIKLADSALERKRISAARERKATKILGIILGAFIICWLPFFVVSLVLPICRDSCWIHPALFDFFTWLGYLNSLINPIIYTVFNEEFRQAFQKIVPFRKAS
Sequence of 5-hydroxytryptamine receptor 7 (Homo sapiens) (P34969 whole entry): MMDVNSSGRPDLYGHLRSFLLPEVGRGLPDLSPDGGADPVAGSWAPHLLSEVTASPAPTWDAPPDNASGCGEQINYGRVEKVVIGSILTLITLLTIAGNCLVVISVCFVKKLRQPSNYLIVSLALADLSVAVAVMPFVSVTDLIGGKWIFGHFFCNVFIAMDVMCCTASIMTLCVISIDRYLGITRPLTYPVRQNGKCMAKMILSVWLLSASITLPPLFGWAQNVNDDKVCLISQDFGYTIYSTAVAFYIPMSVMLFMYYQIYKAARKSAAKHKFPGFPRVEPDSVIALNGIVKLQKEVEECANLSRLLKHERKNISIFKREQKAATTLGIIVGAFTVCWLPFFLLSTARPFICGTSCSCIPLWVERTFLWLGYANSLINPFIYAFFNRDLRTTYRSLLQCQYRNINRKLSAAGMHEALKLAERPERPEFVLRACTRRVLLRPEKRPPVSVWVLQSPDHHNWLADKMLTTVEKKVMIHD
Sequence of 5-hydroxytryptamine receptor 1E (Homo sapiens) (P28566 whole entry): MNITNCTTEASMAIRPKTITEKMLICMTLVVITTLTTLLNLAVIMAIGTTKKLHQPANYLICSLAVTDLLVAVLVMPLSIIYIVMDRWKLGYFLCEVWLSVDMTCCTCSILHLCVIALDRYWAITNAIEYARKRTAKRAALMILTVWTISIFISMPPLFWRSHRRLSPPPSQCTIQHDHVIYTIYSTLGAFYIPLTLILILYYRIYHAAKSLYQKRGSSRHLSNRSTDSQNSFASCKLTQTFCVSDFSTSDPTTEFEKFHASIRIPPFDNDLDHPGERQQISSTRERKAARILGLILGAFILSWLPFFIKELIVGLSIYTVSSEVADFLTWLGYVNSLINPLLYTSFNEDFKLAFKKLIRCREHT
Sequence of Adenosine receptor A2a (P29274 whole entry): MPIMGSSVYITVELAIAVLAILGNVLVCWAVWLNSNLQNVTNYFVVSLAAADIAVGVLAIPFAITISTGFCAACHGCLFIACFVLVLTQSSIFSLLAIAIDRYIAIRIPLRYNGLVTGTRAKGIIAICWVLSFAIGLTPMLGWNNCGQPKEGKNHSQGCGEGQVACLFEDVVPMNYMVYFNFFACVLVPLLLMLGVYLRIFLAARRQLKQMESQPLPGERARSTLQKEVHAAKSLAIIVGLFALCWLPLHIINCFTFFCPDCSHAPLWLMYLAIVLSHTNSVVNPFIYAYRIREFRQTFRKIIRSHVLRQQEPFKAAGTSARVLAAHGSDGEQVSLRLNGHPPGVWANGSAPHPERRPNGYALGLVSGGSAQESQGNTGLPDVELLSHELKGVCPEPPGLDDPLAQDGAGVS
Sequence of Translocator protein (P30536 whole entry): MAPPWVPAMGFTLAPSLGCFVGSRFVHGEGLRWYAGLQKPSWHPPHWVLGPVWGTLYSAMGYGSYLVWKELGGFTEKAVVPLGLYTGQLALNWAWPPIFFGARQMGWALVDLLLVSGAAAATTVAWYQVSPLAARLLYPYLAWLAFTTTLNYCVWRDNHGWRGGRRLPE

SMILES | inhibition [1] | inhibition [2] | inhibition [3] | inhibition [4] | inhibition [5] | inhibition [6] | inhibition [7] | inhibition [8] | inhibition [9] | inhibition [10] | Ki [11] | Ki [12] | inhibition [13] | Ki (Adenosine receptor A1) | inhibition (Adenosine receptor A2a) | Ki (Adenosine receptor A3) | Ki [14] | inhibition [15] | inhibition [17] | also measured
CCCOC(=O)[C@@]12C[C@@H]1[C@@H](n1cnc3c(NC(C4CC4)C4CC4)nc(Cl)nc31)[C@H](O)[C@@H]2O | < 50% | < 50% | < 50% | < 50% | < 50% | < 50% | < 50% | < 50% | < 50% | < 10% | 0.045 µM | 0.205 µM | > 50% | 0.44 µM | 19% | 0.499 µM | > 10 µM | > 50% |  | Ki (Translocator protein): 2.2 µM
O[C@@H]1[C@H](O)[C@@H]2C[C@@H]2[C@H]1n1cnc2c(NCc3cccc(Cl)c3)nc(Cl)nc21 | < 50% | < 50% | < 50% | < 50% | < 50% | < 50% | < 50% |  | < 50% | < 10% | 2.39 µM | 4.1 µM | > 50% | 1.6 µM | > 50% |  | > 10 µM | > 50% |  | Ki [16]: 3.26 µM
CCOC(=O)[C@@]12C[C@@H]1[C@@H](n1cnc3c(N(C)C)nc(Cl)nc31)[C@H](O)[C@@H]2O | < 50% | < 50% | < 50% | < 50% | < 50% | < 50% | < 50% | < 50% | < 50% | < 10% | 0.671 µM | 1.35 µM | > 50% |  | 13% |  | > 10 µM | > 50% | < 10% | inhibition [18]: 30%
CNC(=O)[C@@]12C[C@@H]1[C@@H](n1cnc3c(N(C)C)nc(C#Cc4ccc(Cl)s4)nc31)[C@H](O)[C@@H]2O | < 50% | < 50% | < 50% | < 50% | < 50% | < 50% | < 50% | < 50% | < 50% | 27% |  | 8.5 µM | > 50% |  | 15% | 0.0235 µM | > 10 µM | < 10% | 25% | Ki [19]: 7.3 µM

Reference: ChEMBL document CHEMBL3862033 (J Med Chem, 2016)
